Data published in ChEMBL document CHEMBL1151720, “Citreamicins with potent gram-positive activity” (J Nat Prod, 2008).
Values after ≈ are worked out from the molar mass of the structure shown.

Experiments:
[1] = tested on: Staphylococcus aureus; experiment: Antimicrobial activity against methicillin-susceptible Staphylococcus aureus 29213; format: functional
[2] = tested on: Staphylococcus aureus; experiment: Antimicrobial activity against methicillin-resistant Staphylococcus aureus 1137; format: functional
[3] = tested on: Staphylococcus aureus; experiment: Antimicrobial activity against vancomycin-intermediate Staphylococcus aureus 2012; format: functional
[4] = tested on: Staphylococcus aureus; experiment: Antimicrobial activity against linezolid-resistant methicillin-resistant Staphylococcus aureus 1725; format: functional
[5] = tested on: Streptococcus pneumoniae; experiment: Antimicrobial activity against penicillin-susceptible Streptococcus pneumoniae 975; format: functional
[6] = tested on: Streptococcus pneumoniae; experiment: Antimicrobial activity against penicillin-resistant Streptococcus pneumoniae 940; format: functional
[7] = tested on: Streptococcus pneumoniae; experiment: Antimicrobial activity against quinolone-resistant Streptococcus pneumoniae 376; format: functional
[8] = tested on: Haemophilus influenzae; experiment: Antimicrobial activity against ampicillin-resistant Haemophilus influenzae 1742; format: functional
[9] = tested on: Haemophilus parainfluenzae; experiment: Antimicrobial activity against Haemophilus parainfluenzae 2319; format: functional
[10] = tested on: Escherichia coli; experiment: Antimicrobial activity against Escherichia coli 25922 QC; format: functional; details: ATCC25922
[11] = tested on: Escherichia coli; experiment: Antimicrobial activity against extended spectrum beta-lactamase producing Escherichia coli 2269; format: functional
[12] = tested on: Klebsiella pneumoniae; experiment: Antimicrobial activity against Klebsiella pneumoniae 2239; format: functional
[13] = tested on: Moraxella catarrhalis; experiment: Antimicrobial activity against Moraxella catarrhalis 557; format: functional
[14] = tested on: Serratia marcescens; experiment: Antimicrobial activity against Serratia marcescens 1635; format: functional
[15] = tested on: Pseudomonas aeruginosa; experiment: Antimicrobial activity against Pseudomonas aeruginosa 1473; format: functional
[16] = tested on: Staphylococcus aureus; experiment: Antimicrobial activity against methicillin-resistant Staphylococcus aureus 43300; format: functional
[17] = tested on: Staphylococcus aureus; experiment: Antimicrobial activity against methicillin-susceptible Staphylococcus aureus 6538; format: functional
[18] = tested on: Enterococcus faecium; experiment: Antimicrobial activity against vancomycin-resistant Enterococcus faecium 700221 clinical isolate; format: functional
[19] = tested on: Escherichia coli; experiment: Antimicrobial activity against Escherichia coli 1411; format: functional
[20] = Cytotoxicity against human Hep G2 cells assessed as cell viability measured by change in ATP level after 48 hrs; format: functional; details: HepG2, 48 h
[21] = Cytotoxicity against NHDF cells assessed as cell viability measured by change in ATP level after 48 hrs; format: cell-based; details: human
[22] = tested on: Klebsiella pneumoniae; experiment: Antimicrobial activity against ampC beta-lactamase producing multidrug-resistant Klebsiella pneumoniae 2262; format: functional

Compound	MIC [1] [µg/mL]	MIC [2] [µg/mL]	MIC [3] [µg/mL]	MIC [4] [µg/mL]	MIC [5] [µg/mL]	MIC [6] [µg/mL]	MIC [7] [µg/mL]	MIC [8] [µg/mL]	MIC [9] [µg/mL]	MIC [10] [µg/mL]	MIC [11] [µg/mL]	MIC [12] [µg/mL]	MIC [13] [µg/mL]	MIC [14] [µg/mL]	MIC [15] [µg/mL]	MIC [16] [µg/mL]	MIC [17] [µg/mL]	MIC [18] [µg/mL]	MIC [19] [µg/mL]	CC90 [20] [µg/mL]	also measured
CCCCCCCCCC(=O)N[C@@H](Cc1c[nH]c2ccccc12)C(=O)N[C@H](CC(N)=O)C(=O)N[C@@H](CC(=O)O)C(=O)N[C@@H]1C(=O)NCC(=O)N[C@@H](CCCN)C(=O)N[C@@H](CC(=O)O)C(=O)N[C@H](C)C(=O)N[C@@H](CC(=O)O)C(=O)NCC(=O)N[C@H](CO)C(=O)N[C@@H]([C@H](C)CC(=O)O)C(=O)N[C@@H](CC(=O)c2ccccc2N)C(=O)O[C@@H]1C	1 (≈ 0.617 µM)	1 (≈ 0.617 µM)	8 (≈ 4.94 µM)	1 (≈ 0.617 µM)	0.25 (≈ 0.154 µM)	0.25 (≈ 0.154 µM)	0.25 (≈ 0.154 µM)	> 64	> 64	> 64	> 64	> 64	16 (≈ 9.87 µM)	> 64	> 64						
COc1ccc2oc3c(c(=O)c2c1O)C(=O)c1c(ccc2cc4c(c(O)c12)C(=O)N1C(C)(C4)OC(=O)C1(C)CO)C3=O (stereo not drawn) [CITREAMICIN DELTA]	1 (≈ 1.75 µM)	2 (≈ 3.5 µM)	2 (≈ 3.5 µM)	1 (≈ 1.75 µM)	≤ 0.06			1 (≈ 1.75 µM)	1 (≈ 1.75 µM)	> 64	> 64	> 64	4 (≈ 7 µM)	> 64	> 64	0.5 (≈ 0.875 µM)	≤ 0.5	≤ 0.25	> 128	2.4 (≈ 4.2 µM)	CC90 at 48 h [21]: 0.3 µg/mL (≈ 0.525 µM)
COc1ccc2oc3c(O)c4c(c(O)c3c(=O)c2c1O)-c1c(cc2c(c1O)C(=O)N1C(C)(C2)OC(=O)C1(C)CO)CC4 (stereo not drawn) [CITREAMICIN EPSILON]	0.12 (≈ 0.209 µM)	0.25 (≈ 0.434 µM)	0.25 (≈ 0.434 µM)	0.12 (≈ 0.209 µM)	0.25 (≈ 0.434 µM)	0.12 (≈ 0.209 µM)	0.25 (≈ 0.434 µM)	> 32	> 32	> 32	> 32	> 32	0.5 (≈ 0.869 µM)	> 32	> 32	0.13 (≈ 0.226 µM)	0.13 (≈ 0.226 µM)	0.5 (≈ 0.869 µM)	> 64	1 (≈ 1.74 µM)	MIC [22]: > 32 µg/mL; CC90 at 48 h [21]: 0.1 µg/mL (≈ 0.174 µM)
CC(=O)NC[C@H]1CN(c2ccc(N3CCOCC3)c(F)c2)C(=O)O1 [LINEZOLID]			1 (≈ 2.96 µM)			0.25 (≈ 0.741 µM)		8 (≈ 23.7 µM)	16 (≈ 47.4 µM)	> 64	> 64	> 64	4 (≈ 11.9 µM)	> 64	> 64	1 (≈ 2.96 µM)	0.5 (≈ 1.48 µM)				
C[C@@H](O)[C@H]1C(=O)N2C(C(=O)O)=C(S[C@@H]3CN[C@H](C(=O)N(C)C)C3)[C@H](C)[C@H]12 [MEROPENEM]	0.25 (≈ 0.652 µM)		> 4	0.25 (≈ 0.652 µM)	0.015 (≈ 0.0391 µM)	1 (≈ 2.61 µM)	0.015 (≈ 0.0391 µM)	0.06 (≈ 0.156 µM)	0.03 (≈ 0.0782 µM)	0.03 (≈ 0.0782 µM)	0.03 (≈ 0.0782 µM)	0.06 (≈ 0.156 µM)	≤ 0.004	0.06 (≈ 0.156 µM)	4 (≈ 10.4 µM)						MIC [22]: > 64 µg/mL
